Data published in ChEMBL document CHEMBL3885861, “Open TG-GATES”.

Species: Rattus norvegicus
Experiment: Open TG-GATES - Regimen: Single
Type: toxicity, organism-based, Sprague-Dawley
Set-up: regimen Single, gender Male, age 6 weeks
Conditions: in vivo, po, 100 mg/kg, route gavage, dose level Middle; for APTT / Bas / Eos / Fbg / Hb / Ht / Lym / MCH / MCHC / MCV / Mono / Neu / PT / Plat / RBC / Ret / WBC: tissue Blood; for KIDNEY_L / KIDNEY_R / KIDNEY_TOTAL: tissue Kidney; for LIVER: tissue Liver; for A/G / ALP / ALT / AST / BUN / CRE / Ca / Cl / DBIL / GLC / IP / K / LDH / Na / PL / RALB / TBIL / TC / TG / TP / gamma-GTP: tissue Plasma

Work on Nc1ccc(Cc2ccc(N)cc2)cc1 yielded a TERMINAL_BW (9 h) of 205.5 g, an APTT (9 h) of 14.8 s and a Bas (9 h) of 0%. It also gave an Eos (9 h) of 0.8%, a Fbg (9 h) of 285.4 mg/dL and a Hb (9 h) of 13 g/dL. The Ht (9 h) was 37.8%, the Lym (9 h) was 68.6% and the MCH (9 h) was 21.2 pg. The MCHC (9 h) was 34.2%, the MCV (9 h) was 61.9 fL and the Mono (9 h) was 2.8%. For the same compound, the Neu (9 h) was 27.6%, the PT (9 h) was 12.1 s and the Plat (9 h) was 139.1 x10_4/uL. It also gave an RBC (9 h) of 610.8 x10_4/ul, a Ret (9 h) of 7.8% and a WBC (9 h) of 72.9 x10_2/uL. The KIDNEY_L (9 h) was 0.9 g, the KIDNEY_R (9 h) was 0.9 g and the KIDNEY_TOTAL (9 h) was 1.8 g. The LIVER (9 h) was 8 g, the A/G (9 h) was 0.8 and the ALP (9 h) was 1218.8 IU/L. For the same compound, the ALT (9 h) was 43.8 IU/L, the AST (9 h) was 105 IU/L and the BUN (9 h) was 8.2 mg/dL. For the same compound, the CRE (9 h) was 0.2 mg/dL, the Ca (9 h) was 10.2 mg/dL and the Cl (9 h) was 106.2 meq/L. For the same compound, the DBIL (9 h) was 0.2 mg/dL, the GLC (9 h) was 167.6 mg/dL and the IP (9 h) was 9.4 mg/dL. The K (9 h) was 4.5 meq/L, the LDH (9 h) was 99 IU/L and the Na (9 h) was 142.4 meq/L. The PL (9 h) was 166.2 mg/dL, the RALB (9 h) was 2.4 g/dL and the TBIL (9 h) was 0.3 mg/dL. For the same compound, the TC (9 h) was 86.8 mg/dL, the TG (9 h) was 39.8 mg/dL and the TP (9 h) was 5.3 g/dL. For the same compound, the gamma-GTP (9 h) was 3.4 IU/L, the TERMINAL_BW (24 h) was 195.3 g and the APTT (24 h) was 16.4 s. For the same compound, the Bas (24 h) was 0%, the Eos (24 h) was 0.4% and the Fbg (24 h) was 474.8 mg/dL. The Hb (24 h) was 12.6 g/dL, the Ht (24 h) was 35.7% and the Lym (24 h) was 62.4%. For the same compound, the MCH (24 h) was 21.5 pg, the MCHC (24 h) was 35.4% and the MCV (24 h) was 60.6 fL. For the same compound, the Mono (24 h) was 5%, the Neu (24 h) was 31% and the PT (24 h) was 11.5 s. The Plat (24 h) was 149.3 x10_4/uL, the RBC (24 h) was 589 x10_4/ul and the Ret (24 h) was 6.7%. For the same compound, the WBC (24 h) was 118.7 x10_2/uL, the KIDNEY_L (24 h) was 0.9 g and the KIDNEY_R (24 h) was 0.9 g. It also gave a KIDNEY_TOTAL (24 h) of 1.8 g, an LIVER (24 h) of 7.8 g and an A/G (24 h) of 0.8. It also gave an ALP (24 h) of 3282.4 IU/L, an ALT (24 h) of 252.8 IU/L and an AST (24 h) of 532.6 IU/L. For the same compound, the BUN (24 h) was 11.2 mg/dL, the CRE (24 h) was 0.2 mg/dL and the Ca (24 h) was 11.1 mg/dL. For the same compound, the Cl (24 h) was 102.2 meq/L, the DBIL (24 h) was 2.3 mg/dL and the GLC (24 h) was 136.2 mg/dL. It also gave an IP (24 h) of 9.6 mg/dL, a K (24 h) of 3.8 meq/L and an LDH (24 h) of 332.8 IU/L. The Na (24 h) was 143.8 meq/L, the PL (24 h) was 302.6 mg/dL and the RALB (24 h) was 2.4 g/dL. For the same compound, the TBIL (24 h) was 3.1 mg/dL, the TC (24 h) was 135.2 mg/dL and the TG (24 h) was 63.4 mg/dL. It also gave a TP (24 h) of 5.6 g/dL and a gamma-GTP (24 h) of 8.6 IU/L.
